We go through 3 compounds from patent publication US9301524B2, “Methods for reducing leaf senescence using methyl dihydrojasmonate” (New Biology, Inc., priority 2008, dated 2016).

The test system of data set [1] is corn, rice, wheat, oat, barley, arabidopsis, sunflower, and zucchini. To be noted: application to intact as well as excised plant leaves; literature; cited from earlier work.
The test system of data set [2] is corn ('Kandy Korn', extra sweet) seedlings. As to the kind of experiment: Foliar MDHJ spray, leaf senescence in corn seedlings (Example 4). In kind it is in vivo. To be noted: 6 days after treatment. As to the method: Seeds of corn (‘Kandy Korn’, extra sweet) were planted in 2-inch pots. Seedlings were germinated under 16-hour day/8-hour night greenhouse conditions. Plants were placed outdoors and received 5-6 hours of natural, direct light. Eighteen days after planting, seedlings received one of two treatments. • Treatment 1 (n=11): Foliar spray with water—control • Treatment 2 (n=12): Foliar spray of 1 mM MDHJ in water. Plant leaves from both treatments were sprayed until the point of drip and allowed to air dry before being randomly combined into the same growing tray (to provide plants from both treatments with identical growing conditions). […] Plants were observed and visible leaf senescence recorded 6 days after the single treatment. Plants were scored according to presence or absence of senescence on any leaf of the plant. […] Of the plants with senescing leaves, only one leaf per plant had senescence (10%) in the Treatment 2 group.

For another data set, the system named is Yellow Dwarf roses. As to the kind of experiment: Foliar MDHJ spray, leaf senescence in potted Yellow Dwarf roses (Example 2). In kind it is in vivo. The conditions noted are these: one foliar spray. On the procedure:
Potted Yellow Dwarf roses were grouped into one of four groups, and each of the groups received one treatment. One group was an untreated control (UTC), while the other three groups were treated with aqueous solutions of MDHJ that differed only in the concentration of MDHJ. There were three plants in each group. Before the trial began, naturally senescing leaves were visible on all plants; these were removed at the time that the trial began. The rose leaves received one foliar spray treatment by applying spray until the point of drip. […] Senescence was indicated by chlorosis and necrosis affecting greater than 50% of an individual leaf. After each evaluation, senescing leaves were removed. [table]

A further data set has as its system miniature PARADE® roses. Description: Foliar MDHJ spray, leaf senescence in potted miniature roses (Example 1). Type of data set: in vivo. As to the method: Potted miniature […]® roses were evaluated for the effect on leaf senescence of foliar spray treatment with an MDHJ formulation. […] Another group of four plants was sprayed with a formulation comprising 1.5 mM MDHJ, 0.5% TRITON® X-100, and 0.125% canola oil. The treated plants were sprayed on six occasions, on days 1, 3, 12, 29, 31, and 58, by spraying foliage to the point of drip. […] Senescence was indicated by chlorosis and necrosis affecting greater than 50% of an individual leaflet.

The subject of a further data set is plants. The conditions noted are these: U.S. Patent Application Publication No. 2009/0082453; cited from earlier work.
Data set [3] has as its system spinach seedlings, cultivar 'Merlo Nero'. As to the kind of experiment: MDHJ spray, leaf senescence in greenhouse-grown spinach seedlings (Example 3). In kind it is in vivo. As to the method: Greenhouse-grown spinach seedlings, cultivar ‘Merlo Nero,’ were divided into two groups, with eight plants per group. One group was left untreated, while the other group was treated with 0.5 mM MDHJ in 0.1% ethanol by spraying leaves until the point of drip. Treatments occurred on days 1, 4 and 8 of the experiment. On day 6, senescence was noted on some leaves, defined by chlorosis and/or necrosis. Senescence began at the leaf tip and spread towards the petiole. […] All leaves from each plant were then harvested and combined for each treatment. The total number of senescing leaves were counted and taken as a percentage of the total number of leaves per treatment. Senescence was indicated by chlorosis and necrosis affecting greater than 50% of an individual leaf.

The nature of the next data set: Solubility in water. Type of data set: physicochemical.

Consider `CC/C=C\CC1C(=O)CCC1CC(=O)O` (stereo not shown) [jasmonic acid, 2-(3-oxo-2-(pent-2-enyl)cyclopentyl)acetic acid], for which the “effect on leaf senescence (in words)” value in data set [1] was “promotes or accelerates leaf senescence”.
As to `CCCCCC1C(=O)CCC1CC(=O)OC` (stereo not shown) [MDHJ, methyl dihydrojasmonate], the “of the plants with senescing leaves, only one leaf per plant had senescence (percentage in brackets)” value in data set [2] (Treatment 2: 1 mM MDHJ in water) is reported as 10%. In data set [2] (Treatment 2: 1 mM MDHJ in water, water control 43%), the “severity of senescence: mean % yellow per senescing leaf (leaf area)” value is 15%. In addition, the “% of plants with two senescent leaves” value in data set [2] (Treatment 2: single foliar spray of 1 mM MDHJ in water (n = 12), water control 27%) is 0%. The “% of plants with one senescent leaf” value in data set [2] (Treatment 2: single foliar spray of 1 mM MDHJ in water (n = 12), water control 36%) was determined as 25%. The “% of plants with senescing leaves” value in data set [2] (Treatment 2: single foliar spray of 1 mM MDHJ in water (n = 12), water control 64%) was 27%. For the same compound, the “rate of naturally senescing leaves compared to the untreated control group (in words)” value with Yellow Dwarf roses (MDHJ treatment in general (1.5, 3.0, 6.0 mM)) is given as “reduced the rate of naturally senescing leaves”. The “Mean No. Leaves (exhibiting senescence)” value with Yellow Dwarf roses (Treatment Group 2: 1.5 mM MDHJ + 0.125% TRITON X-100 + 0.5% Canola Oil, Day 3) worked out at 27; in the data set with Yellow Dwarf roses (Treatment Group 2: 1.5 mM MDHJ + 0.125% TRITON X-100 + 0.5% Canola Oil, Day 7), 1; with Yellow Dwarf roses (Treatment Group 2: 1.5 mM MDHJ + 0.125% TRITON X-100 + 0.5% Canola Oil, Day 10) it was 5; in the data set on Yellow Dwarf roses (Treatment Group 2: 1.5 mM MDHJ + 0.125% TRITON X-100 + 0.5% Canola Oil, Day 14), 13; in the data set on Yellow Dwarf roses (Treatment Group 2: 1.5 mM MDHJ + 0.125% TRITON X-100 + 0.5% Canola Oil, Day 31), 27; in the data set with Yellow Dwarf roses (Treatment Group 3: 3.0 mM MDHJ + 0.125% TRITON X-100 + 0.5% Canola Oil, Day 3), 25. In addition, the “Mean No. Leaves (exhibiting senescence)” value is reported as 1 in the data set on Yellow Dwarf roses (Treatment Group 3: 3.0 mM MDHJ + 0.125% TRITON X-100 + 0.5% Canola Oil, Day 7); 4 in the data set with Yellow Dwarf roses (Treatment Group 3: 3.0 mM MDHJ + 0.125% TRITON X-100 + 0.5% Canola Oil, Day 10); 12 in the data set on Yellow Dwarf roses (Treatment Group 3: 3.0 mM MDHJ + 0.125% TRITON X-100 + 0.5% Canola Oil, Day 14); 25 in the data set with Yellow Dwarf roses (Treatment Group 3: 3.0 mM MDHJ + 0.125% TRITON X-100 + 0.5% Canola Oil, Day 31); 23 in the data set on Yellow Dwarf roses (Treatment Group 4: 6.0 mM MDHJ + 0.125% TRITON X-100 + 0.5% Canola Oil, Day 3); 2 in the data set on Yellow Dwarf roses (Treatment Group 4: 6.0 mM MDHJ + 0.125% TRITON X-100 + 0.5% Canola Oil, Day 7). The “Mean No. Leaves (exhibiting senescence)” value is given as 5 in the data set on Yellow Dwarf roses (Treatment Group 4: 6.0 mM MDHJ + 0.125% TRITON X-100 + 0.5% Canola Oil, Day 10); 12 in the data set on Yellow Dwarf roses (Treatment Group 4: 6.0 mM MDHJ + 0.125% TRITON X-100 + 0.5% Canola Oil, Day 14); 23 in the data set on Yellow Dwarf roses (Treatment Group 4: 6.0 mM MDHJ + 0.125% TRITON X-100 + 0.5% Canola Oil, Day 31). In addition, the “senescing leaves (in words)” value in the data set on miniature PARADE® roses (1.5 mM MDHJ foliar spray, sixty-five days after treatment, untreated up to 9.4% of leaflets) is reported as “no senescing leaves”. The “% Leaflets exhibiting senescence” value in the data set on miniature PARADE® roses (individual plant, foliar spray 1.5 mM MDHJ, 0.5% TRITON X-100, 0.125% canola oil on days 1, 3, 12, 29, 31, 58, analyzed 65 days after first treatment, senescence = chlorosis and necrosis >50% of leaflet) stood at 0.0%. The “effect on biotic attack and disease in plants (in words)” value in the data set on plants is “effective in reducing biotic attack and disease in plants”. In addition, the “% of Leaves Exhibiting Senescence” value in data set [3] (0.5 mM MDHJ in 0.1% ethanol sprayed on days 1, 4 and 8, counted day 8, untreated 34.6%) stood at 8.6%. Besides, in data set [3] (0.5 mM MDHJ in 0.1% ethanol, day 8, eight plants, untreated 87.5%), the “% of Plants Exhibiting Senescence” value was found to be 37.5%. In data set [3] (0.5 mM MDHJ in 0.1% ethanol, day 8, of 8 plants, untreated 7), the “Number of Plants Exhibiting Chlorosis or Necrosis” value is reported as 3. Also, the “Number of Senescent Leaves” value in data set [3] (0.5 mM MDHJ in 0.1% ethanol, day 8, of 93 leaves in total, untreated 36 of 104) is on record as 8. Further, the “solubility in water (in words)” value in the data set “Solubility in water” was “relatively low solubility in water”.
As to `CC/C=C\CC1C(=O)CCC1CC(=O)OC` (stereo not shown) [methyl jasmonate], in data set [1], the “effect on leaf senescence (in words)” value is given as “promotes or accelerates leaf senescence”.
